Values of other authors, collected in patent publication US5089474A, “Novel microproteins” (Roussel Uclaf, priority 1989, dated 1992).

Test system: trypsin
Settings: statement in words on the known EETI II; cited from earlier work

## EETI II
  property of inhibiting trypsin: inhibiting trypsin
